This assay deals with LRRK2 (Homo sapiens (Human), UniProt Q5S007, G2019S). Description: In Vitro LRRK2 LabChip Assay (LRRK2 Ki). The format is biochemical. The protocol: In Vitro LRRK2 LabChip Assay
This assay was used to determine a compound's potency in inhibiting activity of LRRK2 by determining, Kiapp, IC50, or percent inhibition values. In a polypropylene plate, LRRK2, fluorescently-labeled peptide substrate, ATP and test compound were incubated together. Using a LabChip 3000 (Caliper Life Sciences), after the reaction the substrate was separated by capillary electrophoresis into two populations: phosphorylated and unphosphorylated. The relative amounts of each were quantitated by fluorescence intensity. LRRK2 Ki was determined according to the equation: Y=V0*(1−((x+Ki*(1+S/Km)+Et)/(2*Et)−(((x+Ki*(1+S/Km)+Et)^2−(4*Et*x))^0.5)/(2*Et))). Ki values in Table 4 and elsewhere herein are shown in μM.
Assay conditions and materials used were as follows:
Kinase reaction time: 2 hours
Wild type in 5 mM MgCl2: 80 μM
Solid Support: Black 50 μL volume polypropylene 384 well plate (MatriCal cat #MP101-1-PP)
Non-binding plate: 384 well clear V-bottom polypropylene plates (Greiner cat #781280).
ATP: 10 mM ATP (Cell Signaling cat #9804).
Coating Reagent #3: Coating Reagent #3 (Caliper).
Complete Reaction Buffer: H2O/25 mM Tris, pH 8.0/5 mM MgCl2/2 mM DTT/0.01% Triton X-100.
Stop Solution: H2O/100 mM HEPES, pH 7.2/0.015% Brij-35/0.2% Coating Reagent #3/20 mM EDTA.
Separation Buffer: H2O/100 mM HEPES, pH 7.2/0.015% Brij-35/0.1% Coating Reagent #3/1:200 Coating Reagent #8/10 mM EDTA/5% DMSO.
Compound Plate Preparation:
For serial dilutions, 34.6 μl DMSO was added to columns 3-24. For the assay controls, 37.5 μl DMSO was added to columns 1 and 2 of rows A and P. a,d and 50 μl 25 μM G-028831 (Staurosporine) was added to columns 1 and 2, row B. For the samples: to start at 100 μM, 37.5 μl DMSO was to columns 1 and 2, then 12.5 μl 10 mM compound; to start at 10 μM, 78 μl DMSO was added to columns 1 & 2, then 2 μl 10 mM compound; and to start at 1 μM, 25 μM compound (2 μl 10 mM cmpd+798 μl DMSO) was added to empty columns 1 and 2. A Precision instrument was used to perform 1:3.16 serial dilutions (“PLK_BM_serial_halflog”).
ATP was diluted to 282.1 μM in Complete Kinase Buffer (final concentration was 130 μM).
Total and Blank Preparation:
In Complete Reaction Buffer, substrate was diluted to 4 μM. Equal volumes of Complete Reaction Buffer and 4 μM substrate were combined to obtain the blank. Equal volumes of Complete Reaction Buffer and 4 μM substrate were combined and to the combined solution was added 2× final LRRK2 concentration.
To a 50 μl polypropylene plate, 5 μl/well buffer/substrate was added by hand to Blank wells. A Biomek FX was used to start the kinase reaction (“PLK SAR 23 ATP”). The following were added to the appropriate wells:
5 μl/well compound/ATP in Assay Plate;
5 μl/well kinase/substrate in Assay Plate;
The plate was incubated for 2 hours in the dark. Biomek FX was used to stop the kinase reaction (“PLK Stop”), and 10 μl/well Stop solution was added to the Assay Plate. Results were read on the LabChip 3000.
The LabChip 3000 was run using the job “LRRK2 IC50” with the following job settings:
Downstream voltage: −500 V
Upstream voltage: −2350 V
Post sample buffer sip time: 75 seconds
Post dye buffer sip time: 75 seconds
Final delay time: 200 seconds

Chain of LRRK2 (Q5S007 970-2527 G2019S): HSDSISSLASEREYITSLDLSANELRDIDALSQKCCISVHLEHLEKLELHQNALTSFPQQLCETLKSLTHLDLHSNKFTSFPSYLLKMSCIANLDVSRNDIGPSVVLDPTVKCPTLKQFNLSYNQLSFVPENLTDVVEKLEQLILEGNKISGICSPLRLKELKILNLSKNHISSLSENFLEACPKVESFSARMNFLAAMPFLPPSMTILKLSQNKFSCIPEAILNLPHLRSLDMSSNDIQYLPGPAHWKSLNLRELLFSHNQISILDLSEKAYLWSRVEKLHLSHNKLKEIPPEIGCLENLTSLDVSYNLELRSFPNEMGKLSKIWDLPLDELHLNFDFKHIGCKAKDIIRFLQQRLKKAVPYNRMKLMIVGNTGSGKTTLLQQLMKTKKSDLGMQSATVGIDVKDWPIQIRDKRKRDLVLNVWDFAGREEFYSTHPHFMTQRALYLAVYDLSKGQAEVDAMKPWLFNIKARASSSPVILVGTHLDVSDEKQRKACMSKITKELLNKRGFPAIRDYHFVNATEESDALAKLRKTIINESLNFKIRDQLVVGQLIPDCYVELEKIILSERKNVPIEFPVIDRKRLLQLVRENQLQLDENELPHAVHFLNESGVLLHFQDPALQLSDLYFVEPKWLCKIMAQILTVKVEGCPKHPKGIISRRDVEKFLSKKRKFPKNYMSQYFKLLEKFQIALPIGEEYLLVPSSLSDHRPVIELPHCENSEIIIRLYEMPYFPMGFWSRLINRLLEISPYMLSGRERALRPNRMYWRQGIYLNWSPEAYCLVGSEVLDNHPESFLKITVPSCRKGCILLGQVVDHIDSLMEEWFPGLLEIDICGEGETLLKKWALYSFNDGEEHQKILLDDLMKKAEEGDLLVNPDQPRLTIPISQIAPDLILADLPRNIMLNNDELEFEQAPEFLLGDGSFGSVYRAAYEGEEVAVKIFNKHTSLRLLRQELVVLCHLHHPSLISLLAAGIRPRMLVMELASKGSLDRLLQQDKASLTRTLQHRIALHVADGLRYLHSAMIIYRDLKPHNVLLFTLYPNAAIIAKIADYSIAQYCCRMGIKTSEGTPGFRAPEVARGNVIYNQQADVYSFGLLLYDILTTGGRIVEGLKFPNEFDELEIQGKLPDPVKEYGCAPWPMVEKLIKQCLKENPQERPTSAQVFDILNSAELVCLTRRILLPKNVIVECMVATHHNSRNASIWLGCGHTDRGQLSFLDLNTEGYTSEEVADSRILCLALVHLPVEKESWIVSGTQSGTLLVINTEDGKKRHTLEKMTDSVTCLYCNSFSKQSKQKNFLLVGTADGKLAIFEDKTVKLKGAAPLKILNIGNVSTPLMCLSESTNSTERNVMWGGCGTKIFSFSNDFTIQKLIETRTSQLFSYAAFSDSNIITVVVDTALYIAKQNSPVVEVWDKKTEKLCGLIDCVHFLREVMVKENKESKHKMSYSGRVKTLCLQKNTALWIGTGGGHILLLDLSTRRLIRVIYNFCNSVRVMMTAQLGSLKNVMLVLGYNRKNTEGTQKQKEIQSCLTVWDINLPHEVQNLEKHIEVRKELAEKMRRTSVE

In the case of `CNc1nc(Nc2cc(F)c(S(C)(=O)=O)cc2OC)ncc1C(F)(F)F` [Example 15, N2-(5-Fluoro-4-methanesulfonyl-2-methoxy-phenyl)-N4-methyl-5-trifluoromethyl-pyrimidine-2,4-diamine], the Ki – broadly, a dissociation constant, usually derived from enzyme kinetics or from competition with a known ligand – came out at 3 nM.

For the compound `COc1nc(Nc2ccc(S(C)(=O)=O)cc2OCCF)ncc1Cl` [Example 18, (5-Chloro-4-methoxy-pyrimidin-2-yl)-[2-(2-fluoro-ethoxy)-4-methanesulfonyl-phenyl]-amine], the Ki turned out to be 12 nM.

Regarding `CNc1nc(Nc2ccc(S(C)(=O)=O)cc2OC(C)C)ncc1C(F)(F)F` [Example 16, N2-(2-Isopropoxy-4-methanesulfonyl-phenyl)-N4-methyl-5-trifluoromethyl-pyrimidine-2,4-diamine], the affinity corresponds to a Ki of 17 nM.

In the case of `CCNc1nc(Nc2ccc(S(C)(=O)=O)c3c2OCCO3)ncc1C(F)(F)F` [Example 38, N4-ethyl-N2-(8-(methylsulfonyl)-2,3-dihydrobenzo[b][1,4]dioxin-5-yl)-5-(trifluoromethyl)pyrimidine-2,4-diamine], the affinity corresponds to a Ki of 3 nM.

`CNc1nc(Nc2ccc(S(C)(=O)=O)cc2OC)ncc1Cl` [Example 2, 5-Chloro-N2-(2-methoxy-4-(methylsulfonyl)phenyl)-N4-methylpyrimidine-2,4-diamine] yielded an inhibitory constant (Ki) of 2 nM.

Compound `CNc1nc(Nc2cc(C)c(C#N)cc2Cl)ncc1C(F)(F)F` [Example 10, 5-Chloro-2-methyl-4-(4-methylamino-5-trifluoromethyl-pyrimidin-2-ylamino)-benzonitrile] gave an inhibition constant Ki of 46 nM.

With `CNc1nc(Nc2ccc(C#N)cc2OC)ncc1C(F)(F)F` [Example 4, 3-Methoxy-4-(4-(methylamino)-5-(trifluoromethyl)pyrimidin-2-ylamino)benzonitrile], affinity was put at a Ki of 8 nM.

Regarding `CNc1nc(Nc2cc(F)c(N3CCCCC3=O)cc2OC)ncc1C(F)(F)F` [Example 32, 1-(2-fluoro-5-methoxy-4-(4-(methylamino)-5-(trifluoromethyl)pyrimidin-2-ylamino)phenyl)piperidin-2-one], affinity was put at a Ki of 5.5 nM.

In turn, `CNc1nc(Nc2cc(F)c(N3CCCC3=O)cc2OC)ncc1C(F)(F)F` [Example 30, 1-(2-fluoro-5-methoxy-4-(4-(methylamino)-5-(trifluoromethyl)pyrimidin-2-ylamino)phenyl)pyrrolidin-2-one] yielded a Ki of 3 nM.

The values above are taken from patent US9145402B2, “Aminopyrimidine derivatives as LRRK2 modulators” (Genentech, Inc., priority 2011, dated 2015).
